Like-named read-outs stand apart in the source and are kept apart here.
Key:
[1] = test system: Enterococcus faecalis (5 strains); assay: MIC range, broader panel of Quotient Bioresearch strains (Table 3); conditions: for MIC50: read-out: MIC Range Median, Enterococcus faecalis (5 strains)
[2] = test system: Bacterial strains injected into thigh muscles; type: in vivo, mice; conditions: 30 mg/kg TDS p.o.
[3] = test system: Staphylococcus aureus (16 strains); assay: MIC range, broader panel of Quotient Bioresearch strains (Table 3); conditions: for MIC50: read-out: MIC Range Median, Staphylococcus aureus (16 strains)
[4] = test system: Acinetobacter baumannii (12 strains); assay: MIC range, broader panel of Quotient Bioresearch strains (Table 4); type: cell-based; conditions: for MIC50: read-out: MIC Range Median, Acinetobacter baumannii (12 strains)
[5] = Metabolic stability in liver microsomes +/- S9 fraction (Table 8); type: in vitro ADME; conditions: 1 μM
Experimental: Metabolic stability of a select number of examples was tested in liver microsomes+/−addition of S9 fraction as described by Kuhnz, W. and Gieschen, H. (1998), Drug Metab. Dispos., 1120-1127. Test concentration was 1 μM and HPLC/MS-MS was used for detection.

[6] = physchem; type: physicochemical; conditions: thermodynamic from solid
Experimental: The solutions were incubated at room temperature for 24 hours before quantification by HPLC detection. Aqueous solubility was evaluated in simulated gastric fluid (SGF), simulated intestinal fluid (SIF) and phosphate buffer saline (PBS) pH 7.4. Aqueous solubility is expressed in Table 11 as mean solubility in μM.

[7] = test system: Streptococcus pneumonia (5 strains); assay: MIC range, broader panel of Quotient Bioresearch strains (Table 3); conditions: Streptococcus pneumoniae; for MIC: read-out: MIC Range Low, Streptococcus pneumonia (5 strains); for MIC50: read-out: MIC Range Median, Streptococcus pneumonia (5 strains)
[8] = test system: Haemophilus influenza (5 strains); assay: MIC range, broader panel of Quotient Bioresearch strains (Table 4); type: cell-based, Haemophilus influenzae; conditions: for MIC50: 16 h, Median of the strain panel
[9] = test system: Group C Streptococcus (4 strains); assay: MIC range, broader panel of Quotient Bioresearch strains (Table 3); conditions: for MIC50: read-out: MIC Range Median, Group C Streptococcus (4 strains)
[10] = test system: Escherichia coli (6 strains); assay: MIC range, broader panel of Quotient Bioresearch strains (Table 4); type: cell-based; conditions: for MIC50: read-out: MIC Range Median, Escherichia coli (6 strains)
[11] = target: bacterial topoisomerase IV (Escherichia coli, UniProt P0AFI2+P20083); assay: Inhibition of topoisomerases activity in vitro, Topogen protocol TG1007 (Table 7); type: biochemical
Chain of bacterial topoisomerase IV (P20083 whole entry): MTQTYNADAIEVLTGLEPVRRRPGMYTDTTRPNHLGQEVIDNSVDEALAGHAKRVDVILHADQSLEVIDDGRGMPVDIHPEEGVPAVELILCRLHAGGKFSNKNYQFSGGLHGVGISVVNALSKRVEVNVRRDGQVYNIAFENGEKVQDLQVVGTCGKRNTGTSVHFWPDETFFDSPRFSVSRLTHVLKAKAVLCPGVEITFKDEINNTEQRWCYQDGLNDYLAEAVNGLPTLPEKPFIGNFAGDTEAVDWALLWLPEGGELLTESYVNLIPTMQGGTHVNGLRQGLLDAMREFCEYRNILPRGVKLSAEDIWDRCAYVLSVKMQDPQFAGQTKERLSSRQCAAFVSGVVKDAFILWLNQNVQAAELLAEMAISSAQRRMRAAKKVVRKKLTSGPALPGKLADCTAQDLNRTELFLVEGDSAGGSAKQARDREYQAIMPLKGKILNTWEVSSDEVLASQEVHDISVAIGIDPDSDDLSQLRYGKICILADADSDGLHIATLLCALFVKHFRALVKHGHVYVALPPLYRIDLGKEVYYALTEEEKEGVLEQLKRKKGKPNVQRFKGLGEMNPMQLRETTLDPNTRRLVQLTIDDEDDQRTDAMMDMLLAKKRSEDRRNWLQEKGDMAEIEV
Chain of bacterial topoisomerase IV (P0AFI2 whole entry): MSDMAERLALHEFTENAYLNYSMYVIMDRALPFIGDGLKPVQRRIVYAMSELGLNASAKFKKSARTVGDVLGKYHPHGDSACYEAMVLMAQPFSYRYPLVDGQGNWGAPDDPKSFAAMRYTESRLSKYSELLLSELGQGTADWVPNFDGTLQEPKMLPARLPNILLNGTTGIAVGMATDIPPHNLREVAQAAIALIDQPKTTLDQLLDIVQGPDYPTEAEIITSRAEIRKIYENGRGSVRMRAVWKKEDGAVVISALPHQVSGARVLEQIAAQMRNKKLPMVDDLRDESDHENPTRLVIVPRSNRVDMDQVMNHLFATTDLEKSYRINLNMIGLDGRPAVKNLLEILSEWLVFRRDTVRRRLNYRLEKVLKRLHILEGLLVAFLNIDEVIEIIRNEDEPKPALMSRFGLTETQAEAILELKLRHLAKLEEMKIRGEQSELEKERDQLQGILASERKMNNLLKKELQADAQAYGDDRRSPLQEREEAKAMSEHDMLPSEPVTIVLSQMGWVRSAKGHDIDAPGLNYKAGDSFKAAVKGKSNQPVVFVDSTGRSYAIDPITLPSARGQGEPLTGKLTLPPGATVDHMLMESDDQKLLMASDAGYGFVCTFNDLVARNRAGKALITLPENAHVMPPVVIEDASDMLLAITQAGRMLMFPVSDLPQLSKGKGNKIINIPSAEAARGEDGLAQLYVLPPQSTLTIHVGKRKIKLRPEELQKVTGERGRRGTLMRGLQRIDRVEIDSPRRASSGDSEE

[12] = test system: Enterococcus faecium (3 strains); assay: MIC range, broader panel of Quotient Bioresearch strains (Table 3); conditions: for MIC: read-out: MIC Range Low, Enterococcus faecium (3 strains); for MIC50: read-out: MIC Range Median, Enterococcus faecium (3 strains)
[13] = test system: Klebsiella pneumonia (4 strains); assay: MIC range, broader panel of Quotient Bioresearch strains (Table 4); type: cell-based; conditions: Klebsiella pneumoniae; for MIC50: read-out: MIC Range Median, Klebsiella pneumonia (4 strains)
[14] = test system: Pseudomonas aeruginosa (12 strains); assay: as above; type: cell-based; conditions: for MIC50: read-out: MIC Range Median, Pseudomonas aeruginosa (12 strains)
[15] = target: bacterial gyrase (Escherichia coli, UniProt P0AES4+P0AES6); assay: Inhibition of topoisomerases activity in vitro, Topogen protocol TG1003 (Table 7); type: biochemical
Chain of bacterial gyrase (P0AES4 whole entry, one chain of several): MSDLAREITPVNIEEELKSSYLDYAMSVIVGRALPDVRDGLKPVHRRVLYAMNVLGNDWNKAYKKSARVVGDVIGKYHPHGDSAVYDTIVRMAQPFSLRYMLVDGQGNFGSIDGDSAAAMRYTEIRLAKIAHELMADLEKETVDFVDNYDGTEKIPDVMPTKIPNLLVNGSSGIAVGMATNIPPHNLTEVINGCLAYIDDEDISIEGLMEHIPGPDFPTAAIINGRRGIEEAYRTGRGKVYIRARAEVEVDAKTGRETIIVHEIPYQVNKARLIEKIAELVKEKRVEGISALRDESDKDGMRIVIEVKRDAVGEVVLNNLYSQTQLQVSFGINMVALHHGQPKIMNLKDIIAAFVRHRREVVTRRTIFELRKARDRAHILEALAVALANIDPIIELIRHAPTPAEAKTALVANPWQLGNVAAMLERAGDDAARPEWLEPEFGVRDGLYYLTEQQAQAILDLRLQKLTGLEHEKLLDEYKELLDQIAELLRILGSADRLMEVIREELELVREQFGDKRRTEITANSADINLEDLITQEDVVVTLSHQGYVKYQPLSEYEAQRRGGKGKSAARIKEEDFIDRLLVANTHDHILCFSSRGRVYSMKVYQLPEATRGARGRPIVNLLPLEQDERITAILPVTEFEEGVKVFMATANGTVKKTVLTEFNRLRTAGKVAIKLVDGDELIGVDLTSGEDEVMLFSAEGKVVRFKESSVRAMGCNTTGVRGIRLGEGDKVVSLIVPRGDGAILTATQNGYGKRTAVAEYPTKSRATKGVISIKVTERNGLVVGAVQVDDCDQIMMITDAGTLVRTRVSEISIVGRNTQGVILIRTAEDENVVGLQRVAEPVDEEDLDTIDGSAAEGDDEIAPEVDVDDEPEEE

[16] = test system: Streptococcus pyogenes (4 strains); assay: MIC range, broader panel of Quotient Bioresearch strains (Table 3); conditions: for MIC50: read-out: MIC Range Median, Streptococcus pyogenes (4 strains)
[17] = test system: Acinetobacter baumannii, quinolone-resistant strains (Quotient Bioresearch catalogue); assay: MIC against pathogens resistant against quinolones (Table 5); type: cell-based; conditions: Acinetobacter baumannii, GN54
[18] = test system: Burkholderia cepacia (5 strains); assay: MIC range, broader panel of Quotient Bioresearch strains (Table 4); type: cell-based; conditions: for MIC50: read-out: MIC Range Median, Burkholderia cepacia (5 strains)
[19] = target: T1, human topoisomerase I (Homo sapiens, UniProt P11387); assay: Inhibition of topoisomerases activity in vitro, Topogen protocol TG1015 (Table 7); type: biochemical; conditions: read-out: IC50 hTopo I Assay
T1 construct: purchased Topogen Inc., Port Orange, USA TG1015
T1 sequence (P11387 1-765): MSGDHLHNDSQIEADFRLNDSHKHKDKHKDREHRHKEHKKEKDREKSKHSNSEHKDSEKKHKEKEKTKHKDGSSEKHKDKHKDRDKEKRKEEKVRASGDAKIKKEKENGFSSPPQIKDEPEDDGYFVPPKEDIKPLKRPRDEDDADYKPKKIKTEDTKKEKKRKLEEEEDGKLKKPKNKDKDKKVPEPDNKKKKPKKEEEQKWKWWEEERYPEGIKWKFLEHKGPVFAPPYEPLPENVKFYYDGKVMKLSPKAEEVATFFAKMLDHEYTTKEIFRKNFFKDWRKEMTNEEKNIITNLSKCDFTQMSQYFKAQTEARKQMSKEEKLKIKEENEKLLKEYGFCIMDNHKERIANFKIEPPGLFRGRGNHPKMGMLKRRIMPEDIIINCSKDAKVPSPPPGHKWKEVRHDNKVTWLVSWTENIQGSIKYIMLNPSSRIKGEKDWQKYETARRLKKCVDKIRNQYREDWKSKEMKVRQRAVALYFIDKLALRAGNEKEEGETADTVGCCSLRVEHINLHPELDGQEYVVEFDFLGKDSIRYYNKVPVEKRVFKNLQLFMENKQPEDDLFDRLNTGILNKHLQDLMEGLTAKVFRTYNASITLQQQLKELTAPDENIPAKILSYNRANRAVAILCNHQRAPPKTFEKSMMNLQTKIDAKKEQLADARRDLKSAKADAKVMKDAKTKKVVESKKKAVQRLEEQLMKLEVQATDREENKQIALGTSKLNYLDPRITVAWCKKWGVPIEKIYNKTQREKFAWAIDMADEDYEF

[20] = read-out: MIC Range High, Enterococcus faecalis (5 strains)
[21] = read-out: MIC Range Low, Enterococcus faecalis (5 strains)
[22] = read-out: MIC Range Low, Staphylococcus aureus (16 strains)
[23] = read-out: MIC Range High, Acinetobacter baumannii (12 strains)
[24] = read-out: MIC Range Low, Acinetobacter baumannii (12 strains)
[25] = High of the strain panel, read-out: MIC Range High, Haemophilus influenza (5 strains)
[26] = Low of the strain panel, read-out: MIC Range Low, Haemophilus influenza (5 strains)
[27] = read-out: MIC Range High, Group C Streptococcus (4 strains)
[28] = read-out: MIC Range Low, Group C Streptococcus (4 strains)
[29] = read-out: MIC Range High, Escherichia coli (6 strains)
[30] = read-out: MIC Range Low, Escherichia coli (6 strains)
[31] = read-out: MIC Range High, Klebsiella pneumonia (4 strains)
[32] = read-out: MIC Range Low, Klebsiella pneumonia (4 strains)
[33] = read-out: MIC Range High, Pseudomonas aeruginosa (12 strains)
[34] = read-out: MIC Range Low, Pseudomonas aeruginosa (12 strains)
[35] = read-out: MIC Range High, Streptococcus pyogenes (4 strains)
[36] = read-out: MIC Range Low, Streptococcus pyogenes (4 strains)
[37] = read-out: MIC Range High, Burkholderia cepacia (5 strains)
[38] = read-out: MIC Range Low, Burkholderia cepacia (5 strains)

Cc1c(-c2ccc(N)nc2)ccn2c(=O)c(C(=O)[O-])cc(C3CC3)c12.[K+] [Example 21 K salt, potassium 8-(6-amino-pyridin-3-yl)-1-cyclopropyl-9-methyl-4-oxo-4H-quinolizine-3-carboxylate]
MIC [1, 20]: 2 µg/mL | MIC [1, 21]: 0.03 µg/mL | MIC50 [1]: 0.12 µg/mL | Log reduction (LgR) from vehicle control (CFU/g) ([2]; E. coli ATCC 25922, mouse thigh): 3.13 | Log reduction (LgR) from vehicle control (CFU/g) ([2]; MRSA ATCC 43300, mouse thigh): 4.93 | MIC [3, 22]: ≤ 0.015 µg/mL | MIC50 [3]: 0.25 µg/mL | MIC [4, 23]: 16 µg/mL | MIC [4, 24]: 0.03 µg/mL | MIC50 [4]: 4 µg/mL | Mean Parent Remaining ([5]; Liver microsomes + S9, human): 93% | Mean Parent Remaining ([5]; Liver microsomes + S9, mouse): 97% | Mean Parent Remaining ([5]; Liver microsomes, human): 85% | Mean Parent Remaining ([5]; Liver microsomes, mouse): 87% | solubility at 24 h ([6]; fassgf or other biorelevant): 200 µM | solubility at 24 h ([6]; pH 7.4, aqueous buffer): 200 µM | solubility at 24 h ([6]; simulated gastric fluid): 200 µM | MIC [7]: 0.06 µg/mL | MIC50 [7]: 0.06 µg/mL | MIC50 [8]: ≤ 0.015 µg/mL | MIC [8, 25]: ≤ 0.015 µg/mL | MIC [8, 26]: ≤ 0.015 µg/mL | MIC [9, 27]: 0.06 µg/mL | MIC [9, 28]: 0.03 µg/mL | MIC50 [9]: 0.03 µg/mL | MIC [10, 29]: 32 µg/mL | MIC [10, 30]: ≤ 0.015 µg/mL | MIC50 [10]: 16 µg/mL | IC50 [11]: ≤ 2.33 µM | MIC [12]: 0.25 µg/mL | MIC50 [12]: 1 µg/mL | MIC [13, 31]: 32 µg/mL | MIC [13, 32]: 0.06 µg/mL | MIC50 [13]: 9 µg/mL | MIC [14, 33]: 32 µg/mL | MIC [14, 34]: 0.5 µg/mL | MIC50 [14]: 8 µg/mL | IC50 [15]: ≤ 1490 nM | MIC [16, 35]: 0.12 µg/mL | MIC [16, 36]: 0.06 µg/mL | MIC50 [16]: 0.06 µg/mL | MIC [17]: 4 µg/mL | MIC [18, 37]: 0.25 µg/mL | MIC [18, 38]: 0.12 µg/mL | MIC50 [18]: 0.25 µg/mL

Cc1c(-c2cc(F)c(N)cc2F)ccn2c(=O)c(C(=O)[O-])cc(C3CC3)c12.[K+] [Example 28 K salt, potassium 8-(4-amino-2,5-difluoro-phenyl)-1-cyclopropyl-9-methyl-4-oxo-4H-quinolizine-3-carboxylate]
MIC [1, 20]: 0.5 µg/mL | MIC [1, 21]: ≤ 0.015 µg/mL | MIC50 [1]: 0.25 µg/mL | MIC ([3]; read-out: MIC Range High, Staphylococcus aureus (16 strains)): 0.12 µg/mL | MIC [3, 22]: ≤ 0.015 µg/mL | MIC50 [3]: 0.06 µg/mL | IC50 [19]: 135 µM | MIC [4, 23]: 16 µg/mL | MIC [4, 24]: 0.06 µg/mL | MIC50 [4]: 8 µg/mL | Mean Parent Remaining ([5]; Liver microsomes + S9, human): 93% | Mean Parent Remaining ([5]; Liver microsomes + S9, mouse): 48% | Mean Parent Remaining ([5]; Liver microsomes, human): 97% | Mean Parent Remaining ([5]; Liver microsomes, mouse): 30% | solubility at 24 h ([6]; fassgf or other biorelevant): 153 µM | solubility at 24 h ([6]; pH 7.4, aqueous buffer): 6 µM | solubility at 24 h ([6]; simulated gastric fluid): 12 µM | MIC [7]: 0.03 µg/mL | MIC50 [7]: 0.06 µg/mL | MIC50 [8]: ≤ 0.015 µg/mL | MIC [8, 25]: ≤ 0.015 µg/mL | MIC [8, 26]: ≤ 0.015 µg/mL | MIC [9, 27]: 0.06 µg/mL | MIC [9, 28]: 0.03 µg/mL | MIC50 [9]: 0.045 µg/mL | MIC [10, 29]: 32 µg/mL | MIC [10, 30]: 0.03 µg/mL | MIC50 [10]: 16 µg/mL | IC50 [11]: ≤ 8.45 µM | MIC [12]: 0.12 µg/mL | MIC50 [12]: 0.25 µg/mL | MIC [13, 31]: > 32 µg/mL | MIC [13, 32]: 0.12 µg/mL | MIC50 [13]: 18 µg/mL | MIC [14, 33]: > 32 µg/mL | MIC [14, 34]: 1 µg/mL | MIC50 [14]: 6 µg/mL | IC50 [15]: 680 nM | MIC [16, 35]: 0.06 µg/mL | MIC [16, 36]: 0.03 µg/mL | MIC50 [16]: 0.06 µg/mL | MIC [17]: 2 µg/mL | MIC [18, 37]: 0.5 µg/mL | MIC [18, 38]: 0.12 µg/mL | MIC50 [18]: 0.25 µg/mL
